≈ marks a conversion by molar mass, not a printed value.

In data set [1] the test system is T. gondii tachyzoites (RH strain). Nature of the data set: microbe, parasite or virus in culture. In kind it is cell-based, Toxoplasma gondii. As for the experimental part:
The improvements are based on microscopic visual imspection of infected and inhibitor treated cultures, and on quantitation of nucleic acid synthesis of the parasite by measure intake of ^3H uracil onto the parasite's nucleic acid. Uracil is not utilized by mammalian cells. […] Only the RH strain tachyzoites, cultured for up to 72 hours, had been used in previously reported assays. The use of Me49, Ptg, and R5 mutant are unique aspects of the methods used in these assays in this invention.
(§1) In these assays toxicity of a candidate inhibitor was assessed by its ability to prevent growth of human foreskin fibroblasts (HFF) after 4 days and after 8 days as measured by tritiated thymidine uptake and microscopic evaluation. Confluent monolayers of HFF were infected with tachyzoites and bradyzoites. Inhibitor was added one hour later. Non-toxic doses were used in parasite growth inhibition assays. Parasite growth was measured by ability to incorporate tritiated uracil during the last 18 hours of culture.
(§2) First the toxicity of gabaculine was assessed by its ability to prevent growth of human foreskin fibroblasts (HFF) as measured by ^3H-thymidine uptake and microscopic evaluation. Non-toxic doses were used in parasite growth inhibition assays. in vitro parasite growth inhibition assays included confluent monolayers of HFF infected with tachyzoites (RH) or mutant Me49 (R5). Gabaculine was added 1 hour later. Parasite growth was measured by the ability to incorporate ^3H-uracil during the last 18 hours of culture. In addition, parasite growth was evaluated microscopically in Giemsa stained slides.
ii) in vitro Parasite Growth Inhibition Assays: Confluent monolayers of HFF cells, grown in 96-well plates are infected with T. gondii tachyzoites of the RH strain and serial dilutions of anti-microbial compound are applied 1 hour later. T. gondii growth is assessed in these cultures by their ability to incorporate tritiated uracil (2.5 μCi/well) added during the last 18 hours of culture. After harvesting cells with an automatic cell harvester, uracil incorporation is measured by liquid scintillation.

In a further data set the test system is C. parvum. The data set can be described thus: C. parvum infection of MDBKF5D2 cell monolayers, immunofluorescence assay at 48 hours. It counts as cell-based, Cryptosporidium parvum. As for the experimental part: C. parvum oocysts at 50,000/well were incubated at 37° C. (8% CO2) on confluent MDBKF5D2 cell monolayers in 96 well microtiter plates with the following concentrations of each drug. […] The level of infection of each well was determined and analyzed by an immunofluorescence assay at 48 hours using an antibody to C. parvum sporozoites made in rabbits at a concentration of 0.1%. Fluorescein-conjugated goat anti-rabbit antibody was used at a concentration of 1%.
(8% carbon dioxide) on confluent MDBKF5D2 cell monolayers in 96 well microtiter plates. The level of infection of each well was determined and analyzed by an immunofluorescence assay at 48 hours using as an antibody C. parvum sporozoite rabbit anti-serum (0.1%), and using fluorescein-conjugated goat anti-rabbit antibody (1%). Data are expressed as mean parasite count/field when 16 fields counted at 10× magnification “s.d. of the mean” (FIG. 6).

Data set [2] relates to D6 clone of Plasmodium falciparum. The data set can be described thus: P. falciparum in vitro assay (Milhous et al., 1985), D6 clone. In kind it is cell-based. The conditions noted are these: D6, 66 h.
Data set [3] has as its system human foreskin fibroblasts (HFF). Nature of the data set: Toxicity: growth of fibroblasts, tritiated thymidine uptake and microscopic evaluation. It counts as cell-based. Conditions: herbicide experiments. Here is the method:
as §1, §2
d) Inhibitors: Inhibitor compounds are tested over a range of concentrations for toxicity against mammalian cells by assessing their ability to prevent cell growth as measured by tritiated thymidine uptake and inspection of the monolayer using microscopic evaluation. […]

In the next data set the test system is Toxoplasma gondii ACC. Nature of the data set: ACC activity in T. gondii tachyzoite protein extracts (carboxyl incorporation from bicarbonate). It counts as biochemical. From the text:
In plants, genes encoding enzymes for fatty acid synthesis, including various subunits of ACC except one, are present in the nuclear genome and their protein products are imported and function in plastids. ACC, catalyzing the first committed step of de novo fatty acid biosynthesis, is a known selective target of aryloxyphenoxypropionate (“fops”) and cyclohexanedione (“dims”) herbicides in sensitive species. The molecular mechanism of inhibition/resistance of the enzyme is not know but there is a strong correlation between the enzyme structure and its origin. The high molecular weight multi-domain ACC that is localized in plastids of grasses is extremely sensitive to these herbicides. All of the multi-subunit chloroplast enzymes of dicot plants and bacteria as well as other multi-domain cytosolic ACCs, such as those from man, chicken, rat and yeast, are resistant. ACC activity is conveniently measured in vitro by the incorporation of the carboxyl group from bicarbonate into an acid-stable form using crude protein extracts after Sephadex G50 filtration. […] One band at 240 kDa corresponded to the expected size for a subunit of ACC, while another at 130 kDA corresponded to the size expected for pyruvate carboxylase (PC).
(§3) Structures of fops and dims were tested on the ACC-containing protein extracts of T. gondii described above. Three of the four fops were striking inhibitors of the activity, while none of the dims had any effect against the enzyme. […] Effects of the herbicides on uninfected fibroblasts and on T. gondii growth and replication were tested as previously described by Roberts et al., 1998 using incorporation of radiolabeled thymidine by growing fibroblasts to assess toxicity and incorporation of radiolabeled uracil to measure T. gondii growth and persistence. Anti-parasite activity and toxicity for four fops and one representative dim were determined. Pyrimethamine and sulfadiazine, antimicrobial agents which are known inhibitors of folate synthesis, were included as positive control. […] Consistent with the data for ACC activity in vitro, the inhibitory activity of the fops and the dim on T. gondii growth in fibroblasts was in the same concentration range. […] With regard to toxicity, fops are mildly toxic at the highest concentration, 400 μM. In separate experiments, the effect of Clodinafop on T. gondii was assessed by light microscopy. […] In this experiment, cultures were incubated for 2 more days without the inhibitor.

Another data set has as its system Toxoplasma tachyzoites. The data set can be described thus: Light microscopy of T. gondii infected fibroblasts treated with Clodinafop. It counts as cell-based, Toxoplasma gondii. Conditions: for parasites in infected fibroblasts: 4-day treatment, one change of medium and inhibitor after 2 days, then 2 more days without inhibitor; for number of T. gondii cells in infected fibroblasts: two days. Here is the method: as §3

Data set [4] relates to T. gondii. The data set can be described thus: Assay for synergy in vitro: inhibitors alone and together on replication of T. gondii (uracil CPM). Conditions: for CPM for B: Drug B alone: Sulfadiazine (6.25 μg/ml), Pyrimethamine (0.025 μg/ml), SHAM (0.78 μg/ml). It counts as cell-based, Toxoplasma gondii. From the text:
The effect of enzymes in pathways “in parallel” are additive and in “series” are more than the additive effect of either inhibitor used alone (i.e., synergistic). […] The shikimate pathway produces 3,4-dihdroxybenzoate which is converted to ubiquinone, an essential component of the electron transport chain. Thus, NPMG, an inhibitor of EPSP-synthase, indirectly affects ubiquinone production and, thus, the electron transport chain. Similarly, heme is required for production of cytochromes in the electron transport chain. Thus, inhibition of heme production by gabaculine also indirectly affects the conventional electron transport chain. […] T. gondii growth is measured by their ability to incorporate tritiated uracil and is expressed as counts/minute (CPM).
g) Assays for Synergy in vitro: This is an assy in which ≦50% inhibitor concentrations of two antimicrobial agents are added alone and together to determine whether there is an additive, synergistic or inhibitory interaction. All other aspects of this assay are as described herein.

Data set [5] relates to T. gondii. The data set can be described thus: Effect of inhibitors on T. gondii infection in vivo (manifestations, parasitemia, brain cysts). On the set-up: species or system mice. Conditions: mouse.
Method: Cyst numbers present in a suspension of brain are enumerated, or cyst numbers in formalin fixed paraffin embedded sections are quantitated.
c) Persistance of Cysts: C3H/He mice are infected orally with 100 cysts of T. gondii (Me49 strain). Inhibitors are administered to groups of mice from day 30 post infection to day 50 post infection. Cyst burden, mortality and pathology are compared in treated and control mice on days 30 and 50 post infection and in mice that receive antibody to gamma interferon which leads to recrudescence of disease.
A method to measure the amount of parasitemia in mouse peripheral blood has been developed. Briefly, the target for PCR amplification is the 35 fold repetitive B1 gene of T. gondii and the amplification was performed using primers previously reported. […] Competitive PCR was performed by spiking individual reactions (containing equal amounts of genomic DNA) with a dilution of the internal standard. Since this internal control contains the same primer template sequences, it competes with the B1 gene of T. gondii for primer binding and amplification. The sensitivity of the PCR reaction in each sample can be monitored. Following competitive PCR, the PCR products are distinguished by size and the amount of products generated by the target and internal standard can be compared on a gel. […]

For orientation: IC50 means the point on the concentration scale where inhibition reaches its midpoint. Read a low IC50 as higher potency. Usually IC90 stands for the concentration needed for an effect of 90%. A lower IC90 goes with an effect from little substance. In the case of `Oc1cccc2cccnc12` [8-OH-quinoline, 8-hydroxyquinoline], the “activity against T. gondii (tachyzoites)” value in data set [1] is “effective”. Besides, the “approximate 95% C1 count (mean parasite count per field)” value in the data set with C. parvum (8-OH-quinoline 0.1 μg/ml, media alone ~1800) is recorded as ~1300; in the data set with C. parvum (8-OH-quinoline 1 μg/ml, media alone ~1800) it was ~1100; in the data set with C. parvum (8-OH-quinoline 10 μg/ml, media alone ~1800), ~900; in the data set with C. parvum (8-OH-quinoline 100 μg/ml, media alone ~1800), ~300. The compound further came in with an IC50 in data set [2] of 1.2 µg/mL (≈ 8.29 µM). This compound also returned an IC90 in data set [2] of 1.88 µg/mL (≈ 13 µM).
Regarding `C[C@@H](Oc1ccc(Oc2ncc(Cl)cc2F)cc1)C(=O)O` [Clodinafop], the “inhibition of growth of T. gondii in human fibroblasts (uracil incorporation)” value in data set [1] (10 μM) is reported as 70%. The “toxicity for fibroblasts (thymidine incorporation)” value in data set [3] was “not toxic”. The “inhibition of ACC activity” value in the data set with Toxoplasma gondii ACC (20 μM) came to 50%; with Toxoplasma gondii ACC (100 μM), 90%. The “parasites in infected fibroblasts” value was “No parasite cells were found” with Toxoplasma tachyzoites (10 μM) and “complete eradication” in the data set on Toxoplasma tachyzoites (10 μM, listed as clodinafop). Also, the “number of T. gondii cells in infected fibroblasts” value is recorded as “substantial reduction” with Toxoplasma tachyzoites (10 μM) and “almost complete removal” in the data set on Toxoplasma tachyzoites (100 μM).
As for `CC1(C)N=C(N)N=C(N)N1c1ccc(Cl)cc1` [Cycloguanil], the “combined effect of two inhibitors in vitro (additive or synergistic)” value with T. gondii [4] (T. gondii in culture) is “synergistic with NPMG”.
As for `CC(Oc1ccc(Oc2ccc(C(F)(F)F)cn2)cc1)C(=O)O` (centres unmarked) [Fluazifop], the “effect on T. gondii ACC activity in crude extracts” value with Toxoplasma gondii ACC was “relatively low inhibitory activity”.
Take `CC(Oc1ccc(Oc2ncc(C(F)(F)F)cc2Cl)cc1)C(=O)O` (centres unmarked) [Haloxyfop]: the “inhibition of ACC activity” value with Toxoplasma gondii ACC (20 μM) is on record as 50%; with Toxoplasma gondii ACC (100 μM), 90%.
As for `CCc1nc(N)nc(N)c1-c1ccc(Cl)cc1` [Pyrimethamine], the “CPM for B” value in the data set on T. gondii [4] is given as 69217 ± 3253 CPM.
For the compound `CC(Oc1ccc(Oc2cnc3cc(Cl)ccc3n2)cc1)C(=O)O` (centres unmarked) [Quizalofop, ()-2-[4-[(6-chloro-2-quinoxalinyl)oxy]phenoxy]propanoic acid], the “inhibition of ACC activity” value is recorded as 50% with Toxoplasma gondii ACC (20 μM) and 90% in the data set with Toxoplasma gondii ACC (100 μM).
Take `O=C(NO)c1ccccc1O` [SHAM, Salicylhydroxamic acid]: the “CPM restricted (tritiated uracil incorporation)” value in data set [1] (SHAM 0.16 μg/ml (0.19), 4 day, medium around 54,000 CPM) is “around 50%”. Moreover, in data set [1] (SHAM 0.78 μg/ml, 4 day, medium around 54,000, no RH around 1,000 CPM), the “counts (tritiated uracil incorporation)” value is “about 8,000 CPM”. The “approximate 95% C1 count (mean parasite count per field)” value in the data set with C. parvum (SHAM 0.1 μg/ml, 0.2% ETOH, media and ethanol ~1200) is recorded as ~1200; in the data set with C. parvum (SHAM 1 μg/ml, 0.2% ETOH, media and ethanol ~1200) it was ~1100; in the data set on C. parvum (SHAM 10 μg/ml, 0.2% ETOH, media and ethanol ~1200) it was ~1100; with C. parvum (SHAM 100 μg/ml, 0.2% ETOH, media and ethanol ~1200), ~400. Also, the “CPM for B” value in the data set on T. gondii [4] was found to be 42993 ± 1098 CPM. Also, the “parasitemia and number of brain cysts” value with T. gondii [5] is “affects parasitemia and number of brain cysts”.
For `Nc1ccc(S(=O)(=O)Nc2ncccn2)cc1` [Sulfadiazine], the “growth of T. gondii reduced” value in data set [1] is reported as “about 60%”. Moreover, in the data set with T. gondii [4], the “CPM for B” value was found to be 25026 ± 4365 CPM. Moreover, in the data set with T. gondii [5], the “manifestations of infection in vivo” value was “reduced manifestations of infection”.
For `NC[C@@H]1O[C@H](O[C@H]2[C@@H](O)[C@H](O[C@@H]3[C@@H](O)[C@H](N)C[C@H](N)[C@H]3O[C@H]3O[C@H](CO)[C@@H](O)[C@H](O)[C@H]3N)O[C@@H]2CO)[C@H](N)[C@@H](O)[C@@H]1O` [paromomycin], the “approximate 95% C1 count (mean parasite count per field)” value with C. parvum (PRM without ethanol, media alone ~1800) is ~200; in the data set with C. parvum (paromomycin (PRM) and ethanol, media and ethanol ~1200), ~100.

The values are drawn from patent US6737237B1, “Antimicrobial agents, diagnostic reagents, and vaccines based on unique Apicomplexan parasite components” (Apicomplexan Therapeutics, LLC, priority 1999, dated 2004).
